The source of these data is ChEMBL document CHEMBL1127801, “3-(2-(3-Pyridinyl)thiazolidin-4-oyl)indoles, a novel series of platelet activating factor antagonists” (J Med Chem, 1994).

SMILES strings stand for the structures.

One test has as its system Rattus norvegicus. The test can be described thus: In vivo antagonist activity for PAF-Induced cutaneous vascular permeability in the rat. It counts as functional.
The next test deals with Mus musculus. The test can be described thus: In vivo antagonist activity against PAF-Induced paw edema in the mouse. Type of test: functional.
Test [1] concerns the target Platelet-activating factor receptor (Oryctolagus cuniculus). The experiment in a line: Functional inhibition of PAF-induced platelet degranulation.

Compound `Cl.Cl.O=C(C1CSC(c2cccnc2)N1)n1ccc2c(Cl)cccc21` (centres undefined) registered an ED50 in the test on Rattus norvegicus of 15 mg/kg. On the same count and under the same terms, in the case of `CN(C)C(=O)n1cc(C(=O)[C@@H]2CSC(c3cccnc3)N2)c2ccc(-c3ccc(F)cc3)cc21` (some centres undefined) it was 0.76 mg/kg; in that of `CC(C)(C)NC(=O)n1cc(C(=O)[C@@H]2CSC(c3cccnc3)N2)c2ccccc21` (some centres undefined), 6.28 mg/kg. Turning to `Cc1nnc2n1C1=C(C(c3ccccc3Cl)=NC2C)C2CCN(C(=O)C3CC3)CC2S1` (centres undefined), the ED50 in the test with Mus musculus stood at 1.44 mg/kg; in the test with Rattus norvegicus it was 0.15 mg/kg. The corresponding values for `CN(C)C(=O)n1cc(C(=O)[C@@H]2CSC(c3cccnc3)N2)c2ccc(-c3ccccc3)cc21` (some centres undefined) are 0.808 mg/kg and 1.12 mg/kg. Turning to `O=C(O)C(=O)O.O=C(c1cn(C(=O)OCc2ccccc2)c2ccccc12)[C@@H]1CSC(c2cccnc2)N1` (some centres undefined), the 50% effect level in the test on Mus musculus (ED50) was put at a dose of 1.79 mg/kg. The same measure, in the same setting: in the case of `CN(C)C(=O)n1cc(C(=O)[C@@H]2CSC(c3cccnc3)N2)c2cccc(OCc3ccccc3)c21` (some centres undefined) it was 0.091 mg/kg.

Turning to `CCCOc1c(OC)cc([C@@H]2CC[C@@H](c3cc(OC)c(OC)c(OC)c3)O2)cc1S(=O)(=O)CCO`, the ED50 stood at 11.5 mg/kg in the test with Mus musculus and 1.89 mg/kg in the test with Rattus norvegicus. The corresponding values for `Cc1ccc2c(C(=O)[C@@H]3CSC(c4cccnc4)N3)cn(C(=O)OC(C)(C)C)c2c1` (some centres undefined) are 1.19 mg/kg and 5.22 mg/kg. In the case of `COc1ccc2c(C(=O)[C@@H]3CSC(c4cccnc4)N3)cn(C(=O)OC(C)(C)C)c2c1.O=C(O)C(=O)O` (some centres undefined), the ED50 with Rattus norvegicus stood at 1.9 mg/kg. Turning to `O=C(c1ccccc1)c1cccc(NC(=O)c2ccn3c2CSC3c2cccnc2)c1` (centres undefined), the 50% effective dose (ED50) came out at 4.07 mg/kg in the test on Mus musculus and 2.27 mg/kg in the test on Rattus norvegicus.

In the case of `CN(C)C(=O)n1cc(C(=O)[C@@H]2CSC(c3cccnc3)N2)c2ccccc21` (some centres undefined), the ED50 is 0.979 mg/kg in the test with Mus musculus and 1.3 mg/kg with Rattus norvegicus. The Kb in test [1] worked out at 0.291 nM. In the test with Mus musculus, `O=C(c1cn(C(=O)N2CCOCC2)c2ccccc12)[C@@H]1CSC(c2cccnc2)N1` (some centres undefined) yielded an ED50 of 2.63 mg/kg. In turn, `CNC(=O)n1cc(C(=O)[C@@H]2CSC(c3cccnc3)N2)c2ccccc21.O=C(O)C(=O)O.O=C(O)C(=O)O` (some centres undefined) yielded an ED50 in the test on Rattus norvegicus of 1.68 mg/kg. Regarding `Cc1nnc2n1-c1sc3c(c1C(c1ccccc1Cl)=NC2)CC(C(=O)N1CCOCC1)C3` (centres undefined) [BEPAFANT], the ED50 with Mus musculus is 0.459 mg/kg; in the test on Rattus norvegicus, 0.423 mg/kg. `CN(C)C(=O)Cn1cc(C(=O)[C@@H]2CSC(c3cccnc3)N2)c2ccccc21` (some centres undefined) came in with a median effective dose (ED50) in the test with Rattus norvegicus of 0.384 mg/kg. Regarding `O=C(c1ccccc1)c1cccc(NC(=O)[C@@H]2CSC(c3cccnc3)N2)c1` (some centres undefined), the ED50 with Mus musculus came out at 1.73 mg/kg; in the test on Rattus norvegicus, 12.9 mg/kg. The compound also yielded a Kb in test [1] of 4.14 nM. Consider `O=C(c1cn(Cc2ccccc2)c2ccccc12)[C@@H]1CSC(c2cccnc2)N1` (some centres undefined), for which, in test [1], the Kb came to 22.1 nM. `COc1ccc2c(C(=O)[C@@H]3CSC(c4cccnc4)N3)c[nH]c2c1` (some centres undefined): the median effective dose (ED50) in the test on Mus musculus was found to be 3.7 mg/kg. Consider `O=C(c1c[nH]c2cc(F)ccc12)[C@@H]1CSC(c2cccnc2)N1` (some centres undefined), for which the ED50 with Rattus norvegicus amounted to 2.69 mg/kg.

Compound `O=C(C1CSC(c2cccnc2)N1)n1ccc2cc(OCc3ccccc3)ccc21` (centres undefined) showed a Kb in test [1] of 1.95 nM. The same measure, in the same setting: the value for `O=C([C@@H]1CSC(c2cccnc2)N1)n1ccc2ccc(OCc3ccccc3)cc21` (some centres undefined) was 12 nM. In the test on Mus musculus, `Cc1c(C(=O)[C@@H]2CSC(c3cccnc3)N2)c2ccccc2n1C(=O)OC(C)(C)C.O=C(O)C(=O)O` (some centres undefined) yielded an ED50 of 0.873 mg/kg. Turning to `O=C(c1cn(C(=O)N2CCOCC2)c2cc(OCc3ccccc3)ccc12)[C@@H]1CSC(c2cccnc2)N1` (some centres undefined), the ED50 with Mus musculus is 3.7 mg/kg; with Rattus norvegicus, 0.762 mg/kg.

For the compound `CC(C)(C)OC(=O)n1cc(C(=O)[C@@H]2CSC(c3cccnc3)N2)c2ccc(OCc3ccccc3)cc21` (some centres undefined), the values for the ED50 with Mus musculus and in the test with Rattus norvegicus were 1.3 mg/kg and 0.429 mg/kg, respectively. The Kb in test [1] came out at 1.19 nM. Regarding `CN(C)C(=O)n1cc(C(=O)[C@@H]2CSC(c3cccnc3)N2)c2ccc(OCc3ccccc3)cc21.O=C(O)C(=O)O` (some centres undefined), the figures for the 50% effective dose (ED50) with Mus musculus and in the test on Rattus norvegicus were 0.079 mg/kg and 0.53 mg/kg, respectively.

`CN(C)C(=O)n1cc(C(=O)[C@@H]2CSC(c3cccnc3)N2)c2ccc(C(=O)c3ccccc3)cc21` (some centres undefined) registered an ED50 in the test with Rattus norvegicus of 0.521 mg/kg.

Take `CC(C)(C)OC(=O)n1cc(C(=O)[C@@H]2CSC(c3cccnc3)N2)c2ccccc21` (some centres undefined): the ED50 came to 0.372 mg/kg in the test on Mus musculus and 4.96 mg/kg with Rattus norvegicus. The Kb in test [1] stood at 0.111 nM. On to `CN(C)C(=O)n1cc(C(=O)[C@@H]2CSC(c3cccnc3)N2)c2ccc(Oc3ccc(F)cc3)cc21` (some centres undefined), for which the 50% effective dose (ED50) in the test with Rattus norvegicus is 0.108 mg/kg. As for `O=C(O)C(=O)O.O=C(c1c[nH]c2ccccc12)[C@@H]1CSC(c2cccnc2)N1` (some centres undefined), the ED50 with Mus musculus was 5.32 mg/kg; in the test on Rattus norvegicus it was 3.65 mg/kg.

Regarding `O=C(O)C(F)(F)F.O=C(c1c[nH]c2c(OCc3ccccc3)cccc12)[C@@H]1CSC(c2cccnc2)N1` (some centres undefined), the ED50 with Mus musculus worked out at 6.98 mg/kg; with Rattus norvegicus it was 1.41 mg/kg. In test [1], this compound yielded a Kb of 0.571 nM. With `CN(C)C(=O)n1cc(C(=O)[C@@H]2CSC(c3cccnc3)N2)c2ccc(Cl)cc21` (some centres undefined), the 50% effect level in the test with Rattus norvegicus (ED50) was put at a dose of 1.6 mg/kg. The same measure, in the same setting: in the case of `CCOC(=O)C1=C(c2ccc(-n3c(C)nc4cnccc43)cc2)NC(C)=C(C(=O)Nc2ccccn2)C1c1ccccc1Cl` (centres undefined) it was 0.232 mg/kg. For the compound `Cc1[nH]c2ccccc2c1C(=O)[C@@H]1CSC(c2cccnc2)N1` (some centres undefined), in test [1], the Kb was determined as 1.99 nM. For the compound `CC(C)(C)C(=O)n1cc(C(=O)[C@@H]2CSC(c3cccnc3)N2)c2ccccc21` (some centres undefined), in the test on Mus musculus, it took a dose of 15.8 mg/kg to reach the 50% effect level (ED50). In the case of `Cc1nnc2n1-c1sc(CCC(=O)N3CCOCC3)cc1C(c1ccccc1Cl)=NC2` [APAFANT], the ED50 in the test with Mus musculus is 2.2 mg/kg; in the test on Rattus norvegicus, 22.3 mg/kg. The corresponding values for `COC(=O)n1cc(C(=O)[C@@H]2CSC(c3cccnc3)N2)c2ccccc21` (some centres undefined) are 1.97 mg/kg and 5.19 mg/kg. Compound `Cc1ccc2c(c1)c(C(=O)[C@@H]1CSC(c3cccnc3)N1)c(C)n2C(=O)OC(C)(C)C.O=C(O)C(=O)O` (some centres undefined) yielded a median effective dose (ED50) in the test on Rattus norvegicus of 9.51 mg/kg. Take `CCS(=O)(=O)n1cc(C(=O)[C@@H]2CSC(c3cccnc3)N2)c2ccccc21` (some centres undefined): the Kb in test [1] was 1.59 nM.

Consider `CN(C(=O)n1cc(C(=O)[C@@H]2CSC(c3cccnc3)N2)c2ccccc21)c1ccccc1` (some centres undefined), for which, in test [1], the Kb came to 1.93 nM. Regarding `O=C(c1c[nH]c2cc(OCc3ccccc3)ccc12)[C@@H]1CSC(c2cccnc2)N1` (some centres undefined), the ED50 was determined as 1.47 mg/kg in the test with Mus musculus and 0.526 mg/kg in the test with Rattus norvegicus. This compound also had a Kb in test [1] of 0.0929 nM.

On to `CCS(=O)(=O)n1cc(C(=O)[C@@H]2CSC(c3cccnc3)N2)c2ccc(OCc3ccccc3)cc21` (some centres undefined), for which, in the test with Rattus norvegicus, the 50% effective dose (ED50) came out at 0.862 mg/kg. On to `CCN(CC)C(=O)n1cc(C(=O)[C@@H]2CSC(c3cccnc3)N2)c2ccccc21` (some centres undefined), for which the results for the ED50 in the test with Mus musculus and with Rattus norvegicus were 0.52 mg/kg and 0.616 mg/kg, respectively. On to `CN(C)C(=O)n1cc(C(=O)[C@@H]2CSC(c3cccnc3)N2)c2ccc(F)cc21` (some centres undefined), for which it took a dose of 0.945 mg/kg to reach the 50% effect level with Rattus norvegicus (ED50).

Take `O=C(c1c[nH]c2cc(-c3ccccc3)ccc12)[C@@H]1CSC(c2cccnc2)N1` (some centres undefined): the ED50 in the test with Mus musculus amounted to 5.39 mg/kg; with Rattus norvegicus, 2.3 mg/kg. `O=C(c1cn(C(=O)c2ccc(Cl)cc2)c2ccccc12)[C@@H]1CSC(c2cccnc2)N1` (some centres undefined): in the test on Rattus norvegicus, the ED50 worked out at 3.19 mg/kg. Same read-out and setting: the value for `O=C(c1c[nH]c2cc(OCc3ccc(F)cc3)ccc12)[C@@H]1CSC(c2cccnc2)N1` (some centres undefined) was 0.273 mg/kg. Consider `COc1cc(C(=O)c2cccc(NC(=O)[C@@H]3CSC(c4cccnc4)N3)c2)cc(OC)c1OC` (some centres undefined), for which the ED50 with Mus musculus came out at 0.476 mg/kg; in the test on Rattus norvegicus, 2.06 mg/kg. This compound also gave a Kb in test [1] of 0.415 nM.

`CN(C)C(=O)n1cc(C(=O)[C@@H]2CSC(c3cccnc3)N2)c2ccc(C#Cc3ccccc3)cc21` (some centres undefined) returned an ED50 in the test with Rattus norvegicus of 0.885 mg/kg.

In the test with Rattus norvegicus, `CN(C)C(=O)n1cc(C(=O)[C@@H]2CSC(c3cccnc3)N2)c2ccc(OCc3ccc(F)cc3)cc21` (some centres undefined) displayed an ED50 of 0.355 mg/kg. Same read-out and setting: the value for `O=C(c1c[nH]c2cc(Br)ccc12)[C@@H]1CSC(c2cccnc2)N1` (some centres undefined) was 1.07 mg/kg; that for `CN(C)C(=O)n1cc(C(=O)[C@@H]2CSC(c3cccnc3)N2)c2ccc(-c3cccnc3)cc21` (some centres undefined) was 4.48 mg/kg.

What is called ED50 is the midpoint of the dose-response relation. A lower ED50 goes with an effect at a small dose.
